Experiment: GHS categories as the set defines them, by LD50: 1 up to 5, 2 up to 50, 3 up to 300, 4 up to 2000, 5 above 2000 mg/kg
Settings: rat; in vivo; po

Row | Structure (SMILES) | GHS category
1 | CC(=O)N(C)C(=O)Oc1cccc2c1OC1(CCCC1)O2 | 4
2 | CC(C)C1=CC2=CC[C@H]3[C@](C)(CO)CCC[C@]3(C)[C@H]2CC1 | 5
3 | O=S(=O)(O)CC(O)CNC1CCCCC1 (configuration not stated) | 5
4 | FC(F)(F)C(F)(F)C(Cl)Cl | 5
5 | CCCCCCCOCC(C)CC=O (configuration not stated) | 5
6 | C=C(C)C(=O)OCCOC(=O)NCCC(C)CC(C)(C)CNC(=O)OCCOC(=O)C(=C)C (configuration not stated) | 5
7 | C#CCOc1cc(-n2nc3n(c2=O)CCCC3)c(Cl)cc1Cl | 5
8 | O=C1C=CC(=O)N1c1ccc(Cc2ccc(N3C(=O)C=CC3=O)cc2)cc1 | 5
9 | O=C1NC(=O)c2cccc3cccc1c23 | 5
10 | CCC(=O)OCC(=O)[C@@]1(OC(=O)CC)[C@@H](C)C[C@H]2[C@@H]3CCC4=CC(=O)C=C[C@]4(C)[C@@]3(Cl)[C@@H](O)C[C@@]21C | 5
11 | CCCCCCCOC(C)=O | 5
12 | CCCCCCCCCCOC1OC(CO)C(O)C(O)C1O (configuration not stated) | 5
13 | O=C(CCc1ccc2c(c1)OCO2)C1C(=O)CC(c2ccccc2)CC1=O (configuration not stated) | 5
14 | CC(=O)S[C@H]1CC(=O)C=C2C[C@@H](SC(C)=O)[C@@H]3[C@H](CC[C@@]4(C)[C@H]3CC[C@]4(C)O)[C@]21C | 5
15 | CCN(CC)CCC1=NC(=C2C=CC=CC2=O)NO1 | 5
16 | COc1ccc2c(c1)CCN(c1ccccc1)C2c1ccccc1Cl (configuration not stated) | 4
17 | CC1COC(Cn2cncn2)(c2cc3ccccc3o2)O1 (configuration not stated) | 4
18 | O=C1c2ccccc2C(=O)c2c(NCCO)ccc(NCCO)c21 | 5
19 | O=S(=O)(O)c1cccc(N=Nc2ccc(N=Nc3ccc(Nc4ccccc4)c4c(S(=O)(=O)O)cccc34)c3ccccc23)c1 | 5
20 | O=C=NS(=O)(=O)c1ccccc1C(F)(F)F | 4
21 | CCCc1nc2ccnn2c(Cl)c1Cc1ccc(-c2ccccc2-c2nn[nH]n2)cc1 | 4
22 | C=C(C)C(=O)OCCNC(C)(C)C | 4

Row | Structure (SMILES) | GHS category
23 | CCCCCCCCCCCCC | 5
24 | Clc1ccc(CSc2ccc(Cl)cc2)cc1 | 5
25 | CCCCCOC1OC(C)C(O)C(O)C1O (configuration not stated) | 5
26 | CCCC(C)O (configuration not stated) | 5
27 | CCc1cccc(C)c1Nc1ccc(Nc2c(C)cccc2CC)c2c1C(=O)c1ccccc1C2=O | 5
28 | C=CC(=O)NCCO | 5
29 | C=C(C)COCC/C=C\CC | 5
30 | Nc1nc2c(ncn2COCCO)c(=O)[nH]1 | 5
31 | COC(=O)c1ccc(C(=O)OC)c(N)c1 | 5
32 | CC1(C)S[C@@H]2[C@H](/N=C/N3CCCCCC3)C(=O)N2[C@H]1C(=O)O | 5
33 | CC[C@H](C)C(=O)O[C@H]1C[C@H](O)C=C2C=C[C@H](C)[C@H](CC[C@@H](O)C[C@@H](O)CC(=O)O)[C@H]21 | 5
34 | C=C(C=CCC(O)C(O)C(O)CC=CC=CC(O)CC1OC(CC(O)C(O)CC2OC(C(O)C(O)CCC(O)C=CC(C)C(O)CC3(O)OC(CC(O)CCCCCCCC45CC(C)CC(C)(O4)C(CC(C)CCCCCC(O)C(O)C(O)C(O)C(O)C4OC(CC(O)C(O)C(C)=CC(O)CC(C)C(O)C(=O)NC=CC(=O)NCCCO)C(O)C(O)C4O)O5)C(O)C(O)C3O)CC(O)C2O)C(O)C(O)C1O)CCC(O)C(O)C(O)C(C)CC1OC(C=CC(O)C(O)CC2CC3CC(O2)C(CCC2OC(CN)CC2O)O3)C(O)C(O)C1O (configuration not stated) | 1
35 | Cc1cc(C)c(C=O)c(C)c1 | 5
36 | CCOC(=O)c1cc(Br)ccc1OC(N)=O | 5
37 | O=C(O)CCCC/C=C(\c1ccccc1)c1cccnc1 | 5
38 | CCC1(CC)C(=O)N2Cc3ccccc3CN2C1=O | 5
39 | CCCCCCCCC(=O)OCC(CC)(COC(=O)CCCCCCCC)COC(=O)CCCCCCCC | 5
40 | Clc1ccc2oc(C3(Cn4ccnc4)OCCO3)cc2c1 | 4
41 | c1cnn(-c2cc(-n3cccn3)ncn2)c1 | 5
42 | CCC(=O)O[C@H]1[C@H](O[C@@H]2[C@@H](C)[C@H](O[C@H]3C[C@@](C)(OC)[C@@H](O)[C@H](C)O3)[C@@H](C)C(=O)O[C@H](CC)[C@@](C)(O)[C@H](O)[C@@H](C)C(=O)[C@H](C)C[C@@]2(C)O)O[C@H](C)C[C@@H]1N(C)C | 5
43 | CC/C=C\CCOC(=O)CC | 5
44 | CC(C)(c1ccccc1)c1ccc(Nc2ccc(C(C)(C)c3ccccc3)cc2)cc1 | 5

Row | Structure (SMILES) | GHS category
45 | CCCNC(=O)c1sc(-c2ccc(OC)cc2)nc1C | 5
46 | CC1(C)[C@H](C(=O)O[C@H](C#N)c2cccc(Oc3ccccc3)c2)[C@@H]1/C=C\C(=O)OC(C(F)(F)F)C(F)(F)F | 5
47 | CCN(CC)CCc1nc(-c2cccc(O)c2)no1 | 5
48 | CO[C@H]1C[C@H](O[C@H]2[C@H](C)[C@@H](O[C@@H]3O[C@H](C)C[C@H](N(C)C)[C@H]3O)[C@H](C)C[C@@]3(CO3)C(=O)[C@H](C)[C@@H](O)[C@@H](C)[C@@H](C)OC(=O)[C@@H]2C)O[C@@H](C)[C@@H]1O | 5
49 | OCC1C(CO)C2(Cl)C(Cl)=C(Cl)C1(Cl)C2(Cl)Cl (configuration not stated) | 5
50 | COC(=O)C1=C(C)NC(C)=C(C(=O)OC(C)C)C1c1cccc2nonc12 (configuration not stated) | 5
51 | CCCc1nc2ncnn2c(N(CC)CC)c1Cc1ccc(-c2ccccc2-c2nn[nH]n2)cc1 | 4
52 | NC(=O)Oc1ccc(Cl)cc1C(=O)Oc1ccc(Cl)cc1Cl | 5
53 | CCCCCCCOCCCCN1CCCCCC1=O | 5
54 | C[Si](C)(C)C | 5
55 | COC(=O)CC(C)C(=O)c1ccc(NC(=O)c2ccc(OC)cc2)c([N+](=O)[O-])c1 (configuration not stated) | 5
56 | CCCOC(=O)c1sc(C(=O)OCCC)c(O)c1O | 4
57 | C=CCCCCCCCCCO | 5
58 | COc1ccccc1NC(=O)C(N=Nc1ccc(Cl)cc1[N+](=O)[O-])C(C)=O (configuration not stated) | 5
59 | CCN(Cc1cccc(S(=O)(=O)O)c1)c1ccc(C(=C2C=CC(=[N+](CC)Cc3cccc(S(=O)(=O)[O-])c3)C=C2)c2ccccc2)cc1 | 5
60 | COC(=O)c1ccc(N2CCC(c3ccc(Cl)cc3)=N2)cc1 | 5
61 | CC(C)=CCCC(C)CCOC(=O)Cc1ccccc1 (configuration not stated) | 5
62 | CC[C@H]1OC(=O)[C@H](C)[C@@H](O[C@H]2C[C@@](C)(OC)[C@@H](O)[C@H](C)O2)[C@H](C)[C@@H](O[C@@H]2O[C@H](C)C[C@H](N(C)C)[C@H]2O)[C@](C)(O)C[C@@H](C)CN(C)[C@H](C)[C@@H](O)[C@]1(C)O | 5
63 | O=P(Oc1ccccc1)(Oc1ccccc1)Oc1ccccc1-c1ccccc1 | 5
64 | COc1cc(C)c(C(=O)c2c(OC)ccc(Br)c2C)c(OC)c1OC | 5
65 | O=C(O)c1ccc(C(=O)O)o1 | 5
66 | COc1ccc(N=NC(C(C)=O)C(=O)Nc2ccccc2OC)c([N+](=O)[O-])c1 (configuration not stated) | 5

Row | Structure (SMILES) | GHS category
67 | O=C(O)c1cc2ccccc2c(N=Nc2cc(Cl)ccc2Cl)c1O | 5
68 | O=Cc1c(O)ccc2ccccc12 | 5
69 | O=C1CC(c2ccccc2)c2cc(Br)ccc2O1 (configuration not stated) | 5
70 | CC/C=C\CCOC(=O)C/C=C\CC | 5
71 | C=CCCCCCCCCC(=O)NCC(=O)O | 5
72 | Nc1c(I)c(C(=O)O)c(I)c(C(=O)NCC(O)CO)c1I (configuration not stated) | 5
73 | CCCCN1CCCC1=O | 4
74 | COC12C[C@@H](CO)CN(C)[C@@H]1Cc1cn(C(C)(C)C)c3cccc2c13 (some centres not stated) | 4
75 | CC1=NN(c2ccccc2)C(=O)C1=CN1CCCCC1 | 5
76 | COc1ccc(C(=O)C2CC2)cc1 | 4
77 | CCO[Si](OCC)(OCC)N(CC)CC | 4
78 | CN1CCN(C(=S)SSC(=S)N2CCN(C)CC2)CC1 | 5
79 | COCCCNc1nc(NC(C)C)nc(SC)n1 | 5
80 | O=C(O)COc1nn(-c2cccc(C(F)(F)F)c2)c2ncccc12 | 4
81 | O=CCC(=O)c1ccc(C2CCCCC2)cc1 | 4
82 | CCC(=O)OC1CC2CC1C1CC=CC21 (configuration not stated) | 5
83 | CN(C)CCSc1nc2ccccc2cc1-c1ccccc1 | 4
84 | CNC(=O)Oc1c(C(C)(C)C)cc(C)cc1C(C)(C)C | 5
85 | CNC(=O)C(=NNc1cc([N+](=O)[O-])ccc1OC)C(C)=O | 5
86 | CC(C)(Oc1ccc(Cl)cc1)C(=O)NC(=O)NCN1CCOCC1 | 5
87 | C[C@H]1CO[C@@](Cn2ccnc2)(c2cc3cc(Cl)cc(Cl)c3o2)O1 | 4
88 | O=C1c2ccccc2CN2C(=O)c3ccccc3CN12 | 5

Row | Structure (SMILES) | GHS category
89 | CC(C)COP(O)(=S)OCC(C)C | 5
90 | O=C(CCn1cnc2c(=O)nc[nH]c21)Nc1ccc(C(=O)O)cc1 | 5
91 | CN(C(=O)Cl)c1nnc(C(C)(C)C)s1 | 4
92 | CCCc1c(Cc2ccc(-c3ccccc3-c3nn[nH]n3)cc2)c(NCCN2CCOCC2)nc2ncnn12 | 4
93 | CCCCCCCCCCCCCCCCCC(=O)OCCOC(=O)CCCCCCCCCCCCCCCCC | 5
94 | COc1cc(S(=O)(=O)O)c(C)cc1/N=N/c1c(O)ccc2cc(S(=O)(=O)O)ccc12 | 5
95 | O=c1[nH]c(=O)n([C@H]2C[C@H](O)[C@@H](CO)O2)cc1C(F)(F)F | 5
96 | COc1cc2nc(N3CCC(CN(C)C(=O)c4ccco4)CC3)nc(N)c2cc1OC | 4
97 | CC(CO)CO | 5
98 | CCN(CC)C(=O)CCSCc1nnnn1C | 4
99 | CCCCCCCCCCCC(=O)OCC(C)(C)C=NCC1(C)CC(N=CC(C)(C)COC(=O)CCCCCCCCCCC)CC(C)(C)C1 (configuration not stated) | 5
100 | CC(C)(C1CCCO1)C1CCCO1 (configuration not stated) | 4
101 | NCCCC[C@H](OP(=O)(O)CCCCc1ccccc1)C(=O)N1CCC[C@H]1C(=O)O | 5
102 | OC1CCC(CN2CCC(=C3c4ccc(F)cc4Sc4ccc(C(F)(F)F)cc43)CC2)CC1 (configuration not stated) | 3
103 | CCCCOC(=O)C(=O)Nc1cccc(-c2nnn[nH]2)c1 | 5
104 | CNC(=O)Oc1ccc(C)c2sccc12 | 3
105 | CCCCc1c(Cc2ccc(-c3ccccc3-c3nn[nH]n3)cc2)c(=O)nc2nc(C)[nH]n12 | 4
106 | CC/C=C\CCCCCCCCOC(C)=O | 5
107 | C=CCCCCCCCCC(OCC=C(C)CCC=C(C)C)OCC=C(C)CCC=C(C)C (configuration not stated) | 5

Source: the CATMoS acute toxicity set (Mansouri et al. 2021)
